ChEMBL document CHEMBL5550160, “Leveraging a rationally designed veliparib-based anilide eliciting anti-leukemic effects for the design of pH-responsive polymer nanoformulation” (Eur J Med Chem, 2024)
The source made the active and inactive calls. The rule behind the calls is not given here.

Key:
HL-60 [1] = assay: Induction of apoptosis in human HL-60 cells assessed as DNA fragmentation at 0.5 to 1 times IC50 by DAPI staining based microscopic analysis; format: functional, cell-based
Histone deacetylase 1 = Histone deacetylase 1 (Homo sapiens, UniProt Q13547); assay: Inhibition of HDAC1 (unknown origin) using p53 residues 379 to 382 [RHKK(Ac)] as fluorogenic substrate assessed as residual activity at 3.33 x 10^-6M (reference value: 98.06%); conditions: dose 3.33 10^-6M
[2] = molecular target: T1, Histone deacetylase 8 (Homo sapiens) (UniProt Q9BY41); assay: Inhibition of HDAC8 (unknown origin) assessed as residual activity at 5.08 x 10^-10M (reference value: 100%); conditions: dose 5.08 10^-10M
T1 sequence (whole entry): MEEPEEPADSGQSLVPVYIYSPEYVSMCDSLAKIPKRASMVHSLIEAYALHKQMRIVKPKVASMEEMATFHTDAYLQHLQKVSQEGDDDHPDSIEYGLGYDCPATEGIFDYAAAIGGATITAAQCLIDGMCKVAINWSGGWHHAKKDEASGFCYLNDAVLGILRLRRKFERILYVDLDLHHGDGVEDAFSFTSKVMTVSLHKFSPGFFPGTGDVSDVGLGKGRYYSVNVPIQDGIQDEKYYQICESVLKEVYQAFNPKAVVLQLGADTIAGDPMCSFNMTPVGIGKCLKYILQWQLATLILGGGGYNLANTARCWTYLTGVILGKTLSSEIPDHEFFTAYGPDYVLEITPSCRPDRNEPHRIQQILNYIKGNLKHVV

[3] = molecular target: Histone deacetylase 5 (Homo sapiens) (UniProt Q9UQL6); assay: Inhibition of HDAC5 (unknown origin) assessed as residual activity at 5.08 x 10^-10M (reference value: 100%); conditions: dose 5.08 10^-10M
[4] = molecular target: T2, Protein deacetylase HDAC6 (Homo sapiens) (UniProt Q9UBN7); assay: Inhibition of HDAC6 (unknown origin) using p53 residues 379 to 382 [RHKK(Ac)] as fluorogenic substrate assessed as residual activity at 1.11 x 10^-6M (reference value: 101.06%); conditions: dose 1.1 10^-6M
T2 sequence (whole entry): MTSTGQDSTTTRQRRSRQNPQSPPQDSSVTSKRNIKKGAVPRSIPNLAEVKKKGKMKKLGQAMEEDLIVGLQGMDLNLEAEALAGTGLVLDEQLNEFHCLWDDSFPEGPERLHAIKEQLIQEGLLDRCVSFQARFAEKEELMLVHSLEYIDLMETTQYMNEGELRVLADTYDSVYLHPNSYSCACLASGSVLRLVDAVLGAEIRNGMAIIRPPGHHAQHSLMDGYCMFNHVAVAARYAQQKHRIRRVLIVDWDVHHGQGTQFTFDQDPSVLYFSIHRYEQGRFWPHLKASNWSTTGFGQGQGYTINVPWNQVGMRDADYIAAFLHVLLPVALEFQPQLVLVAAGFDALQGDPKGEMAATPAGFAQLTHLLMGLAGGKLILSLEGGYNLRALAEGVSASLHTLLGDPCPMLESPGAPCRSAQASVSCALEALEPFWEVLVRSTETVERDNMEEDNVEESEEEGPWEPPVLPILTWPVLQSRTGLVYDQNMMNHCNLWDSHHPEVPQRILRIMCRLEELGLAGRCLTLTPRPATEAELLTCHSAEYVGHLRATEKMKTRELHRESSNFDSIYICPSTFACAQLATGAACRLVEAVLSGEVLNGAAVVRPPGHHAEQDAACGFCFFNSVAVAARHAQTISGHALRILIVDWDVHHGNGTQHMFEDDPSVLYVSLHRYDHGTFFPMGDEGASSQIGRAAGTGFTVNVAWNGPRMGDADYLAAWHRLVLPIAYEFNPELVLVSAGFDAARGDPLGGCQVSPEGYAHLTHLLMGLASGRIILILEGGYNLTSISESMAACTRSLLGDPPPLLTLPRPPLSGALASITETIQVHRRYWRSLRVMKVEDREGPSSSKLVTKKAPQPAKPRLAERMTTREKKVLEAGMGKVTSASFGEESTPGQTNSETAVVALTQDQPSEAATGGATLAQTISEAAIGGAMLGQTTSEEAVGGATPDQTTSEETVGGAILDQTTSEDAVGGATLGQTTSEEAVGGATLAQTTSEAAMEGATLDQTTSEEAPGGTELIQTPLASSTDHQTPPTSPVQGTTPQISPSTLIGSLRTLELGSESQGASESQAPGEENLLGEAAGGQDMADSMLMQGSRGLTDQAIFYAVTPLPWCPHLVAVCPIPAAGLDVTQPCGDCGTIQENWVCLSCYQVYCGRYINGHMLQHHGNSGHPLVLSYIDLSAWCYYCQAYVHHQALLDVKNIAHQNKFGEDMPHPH

HL-60 [5] = assay: Downregulation of HDAC2 protein expression in human HL-60 cells at 0.5 to 1 times IC50 by Western blot analysis; format: functional, cell-based
[6] = molecular target: T3, Histone deacetylase 7 (Homo sapiens) (UniProt Q8WUI4); assay: Inhibition of HDAC7 (unknown origin) assessed as residual activity at 1.37 x 10^-8M (reference value: 102.66%); conditions: dose 1.37 10^-8M
T3 sequence (whole entry): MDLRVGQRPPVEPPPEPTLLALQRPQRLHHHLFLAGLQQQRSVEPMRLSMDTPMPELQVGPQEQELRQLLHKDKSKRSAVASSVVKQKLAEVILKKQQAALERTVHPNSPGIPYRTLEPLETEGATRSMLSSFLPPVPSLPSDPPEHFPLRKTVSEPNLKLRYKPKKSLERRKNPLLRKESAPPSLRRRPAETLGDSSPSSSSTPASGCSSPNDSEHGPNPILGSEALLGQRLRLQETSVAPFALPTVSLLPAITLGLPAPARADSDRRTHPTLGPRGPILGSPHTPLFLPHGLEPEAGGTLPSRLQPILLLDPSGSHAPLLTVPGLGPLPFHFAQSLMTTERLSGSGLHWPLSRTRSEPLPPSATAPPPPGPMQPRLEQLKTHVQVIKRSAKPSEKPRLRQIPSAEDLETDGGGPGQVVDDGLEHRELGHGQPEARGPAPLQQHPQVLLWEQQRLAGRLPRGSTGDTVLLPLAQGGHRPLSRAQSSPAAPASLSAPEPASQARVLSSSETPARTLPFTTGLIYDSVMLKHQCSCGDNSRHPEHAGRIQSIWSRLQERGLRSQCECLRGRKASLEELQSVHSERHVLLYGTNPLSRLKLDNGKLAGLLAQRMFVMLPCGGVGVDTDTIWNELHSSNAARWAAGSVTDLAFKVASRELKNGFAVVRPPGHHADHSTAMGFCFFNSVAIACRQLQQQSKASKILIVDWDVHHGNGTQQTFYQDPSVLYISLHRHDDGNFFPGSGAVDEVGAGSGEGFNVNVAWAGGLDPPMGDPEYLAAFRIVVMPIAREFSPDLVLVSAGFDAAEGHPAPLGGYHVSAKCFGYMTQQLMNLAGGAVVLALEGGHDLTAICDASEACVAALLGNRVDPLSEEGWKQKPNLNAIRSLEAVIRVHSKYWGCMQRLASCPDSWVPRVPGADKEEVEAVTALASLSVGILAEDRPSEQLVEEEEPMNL

Sequence of Histone deacetylase 1 (Q13547 whole entry, the tested form may be a part): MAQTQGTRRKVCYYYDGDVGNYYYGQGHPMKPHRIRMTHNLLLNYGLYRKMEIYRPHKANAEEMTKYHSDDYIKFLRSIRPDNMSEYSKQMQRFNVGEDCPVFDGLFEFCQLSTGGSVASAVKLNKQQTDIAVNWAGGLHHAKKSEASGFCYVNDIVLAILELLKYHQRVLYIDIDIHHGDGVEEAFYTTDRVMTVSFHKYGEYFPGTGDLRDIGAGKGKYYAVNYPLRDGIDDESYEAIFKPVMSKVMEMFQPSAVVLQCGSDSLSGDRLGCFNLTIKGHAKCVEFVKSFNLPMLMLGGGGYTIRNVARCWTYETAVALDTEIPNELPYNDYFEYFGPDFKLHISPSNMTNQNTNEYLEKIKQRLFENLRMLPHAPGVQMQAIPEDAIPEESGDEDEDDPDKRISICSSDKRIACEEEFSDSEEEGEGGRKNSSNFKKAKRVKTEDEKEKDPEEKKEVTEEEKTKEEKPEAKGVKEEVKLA
Sequence of Histone deacetylase 5 (Homo sapiens) (Q9UQL6 whole entry, the tested form may be a part): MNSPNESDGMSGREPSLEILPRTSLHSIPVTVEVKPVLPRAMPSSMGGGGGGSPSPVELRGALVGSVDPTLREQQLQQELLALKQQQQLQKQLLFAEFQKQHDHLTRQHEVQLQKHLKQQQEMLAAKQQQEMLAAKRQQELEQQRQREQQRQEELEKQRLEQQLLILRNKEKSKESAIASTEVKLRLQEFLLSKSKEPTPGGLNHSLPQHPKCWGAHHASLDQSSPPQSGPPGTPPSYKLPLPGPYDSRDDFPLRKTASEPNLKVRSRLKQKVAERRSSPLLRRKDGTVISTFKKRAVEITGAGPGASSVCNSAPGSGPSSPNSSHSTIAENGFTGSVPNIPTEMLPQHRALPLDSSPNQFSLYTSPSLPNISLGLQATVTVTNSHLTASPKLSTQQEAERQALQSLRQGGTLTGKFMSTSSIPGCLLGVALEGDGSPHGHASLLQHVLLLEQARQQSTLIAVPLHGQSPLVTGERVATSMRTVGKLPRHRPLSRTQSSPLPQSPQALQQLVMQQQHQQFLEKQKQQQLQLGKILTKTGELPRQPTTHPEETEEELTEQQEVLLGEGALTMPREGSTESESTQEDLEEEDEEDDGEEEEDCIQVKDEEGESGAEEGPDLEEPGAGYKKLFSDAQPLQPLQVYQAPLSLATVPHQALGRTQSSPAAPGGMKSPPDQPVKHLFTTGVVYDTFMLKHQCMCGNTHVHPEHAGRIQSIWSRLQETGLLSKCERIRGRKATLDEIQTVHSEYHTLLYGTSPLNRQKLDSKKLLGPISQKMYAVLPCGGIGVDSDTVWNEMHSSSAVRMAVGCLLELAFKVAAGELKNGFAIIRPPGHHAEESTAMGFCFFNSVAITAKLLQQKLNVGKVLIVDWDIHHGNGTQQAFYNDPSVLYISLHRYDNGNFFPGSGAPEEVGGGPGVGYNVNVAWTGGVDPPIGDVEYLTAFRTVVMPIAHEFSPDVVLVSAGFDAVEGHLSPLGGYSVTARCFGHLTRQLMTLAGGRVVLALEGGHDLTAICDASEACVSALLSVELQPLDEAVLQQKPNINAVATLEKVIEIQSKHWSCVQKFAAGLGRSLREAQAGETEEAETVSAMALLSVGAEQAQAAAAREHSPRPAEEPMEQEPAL

With NC(=O)c1cccc2[nH]c(-c3ccc(NCc4ccc(C(=O)Nc5ccccc5N)cc4)cc3)nc12 the Activity (HL-60 [1]) was “inactive”, the Activity (Histone deacetylase 1) was 6.73% and the Activity [2] was 105%. For the same compound, the Activity [3] was 39%, the Activity [4] was 79.8% and the Activity (HL-60 [5]) was “Active”. For the same compound, the Activity [6] was 103%.
